Data reported in ChEMBL document CHEMBL1154879, “Discovery of (thienopyrimidin-2-yl)aminopyrimidines as potent, selective, and orally available pan-PI3-kinase and dual pan-PI3-kinase/mTOR inhibitors for the treatment of cancer” (J Med Chem, 2010).

How the values were obtained:
PC-3 = experiment: Antiproliferative activity against human PC3 cells deficient in PTEN in after 3 to 4 days; format: functional, cell-based
[1] = Clearance in Sprague-Dawley rat liver microsomes; format: ADME, Microsome
[2] = biological target: Phosphatidylinositol 4,5-bisphosphate 3-kinase catalytic subunit alpha isoform (Homo sapiens, UniProt P42336)
Sequence of Phosphatidylinositol 4,5-bisphosphate 3-kinase catalytic subunit alpha isoform (P42336 whole entry, canonical isoform): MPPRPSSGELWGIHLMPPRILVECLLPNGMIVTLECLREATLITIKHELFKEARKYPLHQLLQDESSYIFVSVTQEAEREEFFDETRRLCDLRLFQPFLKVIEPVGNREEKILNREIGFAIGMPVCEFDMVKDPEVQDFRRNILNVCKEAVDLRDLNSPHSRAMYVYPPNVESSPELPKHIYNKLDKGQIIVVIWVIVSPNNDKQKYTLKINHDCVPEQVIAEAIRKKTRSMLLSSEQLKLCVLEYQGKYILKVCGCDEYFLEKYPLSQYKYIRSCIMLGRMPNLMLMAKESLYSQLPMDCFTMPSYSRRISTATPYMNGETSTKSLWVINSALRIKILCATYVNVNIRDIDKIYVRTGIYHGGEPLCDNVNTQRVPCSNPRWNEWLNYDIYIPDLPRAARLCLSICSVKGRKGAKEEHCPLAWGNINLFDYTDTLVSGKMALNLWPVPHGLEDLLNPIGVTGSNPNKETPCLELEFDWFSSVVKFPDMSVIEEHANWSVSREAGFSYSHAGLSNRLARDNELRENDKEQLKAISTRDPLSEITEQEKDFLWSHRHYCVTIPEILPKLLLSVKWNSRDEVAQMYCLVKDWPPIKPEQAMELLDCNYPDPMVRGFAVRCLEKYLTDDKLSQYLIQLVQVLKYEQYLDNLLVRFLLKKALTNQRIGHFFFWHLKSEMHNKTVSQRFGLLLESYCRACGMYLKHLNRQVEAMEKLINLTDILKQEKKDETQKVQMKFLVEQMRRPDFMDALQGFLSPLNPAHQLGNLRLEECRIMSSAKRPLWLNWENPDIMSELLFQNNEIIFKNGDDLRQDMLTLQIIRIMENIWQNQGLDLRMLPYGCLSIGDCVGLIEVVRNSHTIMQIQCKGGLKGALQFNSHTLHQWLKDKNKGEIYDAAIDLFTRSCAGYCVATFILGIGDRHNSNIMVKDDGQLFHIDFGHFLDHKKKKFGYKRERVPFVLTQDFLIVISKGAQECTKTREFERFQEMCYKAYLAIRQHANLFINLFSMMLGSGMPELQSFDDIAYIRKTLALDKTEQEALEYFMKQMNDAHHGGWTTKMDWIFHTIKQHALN

[3] = Antiproliferative activity against human MCF7.1 cells expressing PI3Kalpha mutant after 3 to 4 days; format: functional, cell-based
[4] = biological target: T1, Phosphatidylinositol 4,5-bisphosphate 3-kinase catalytic subunit delta isoform (Homo sapiens, UniProt O00329)
T1 sequence (O00329 whole entry): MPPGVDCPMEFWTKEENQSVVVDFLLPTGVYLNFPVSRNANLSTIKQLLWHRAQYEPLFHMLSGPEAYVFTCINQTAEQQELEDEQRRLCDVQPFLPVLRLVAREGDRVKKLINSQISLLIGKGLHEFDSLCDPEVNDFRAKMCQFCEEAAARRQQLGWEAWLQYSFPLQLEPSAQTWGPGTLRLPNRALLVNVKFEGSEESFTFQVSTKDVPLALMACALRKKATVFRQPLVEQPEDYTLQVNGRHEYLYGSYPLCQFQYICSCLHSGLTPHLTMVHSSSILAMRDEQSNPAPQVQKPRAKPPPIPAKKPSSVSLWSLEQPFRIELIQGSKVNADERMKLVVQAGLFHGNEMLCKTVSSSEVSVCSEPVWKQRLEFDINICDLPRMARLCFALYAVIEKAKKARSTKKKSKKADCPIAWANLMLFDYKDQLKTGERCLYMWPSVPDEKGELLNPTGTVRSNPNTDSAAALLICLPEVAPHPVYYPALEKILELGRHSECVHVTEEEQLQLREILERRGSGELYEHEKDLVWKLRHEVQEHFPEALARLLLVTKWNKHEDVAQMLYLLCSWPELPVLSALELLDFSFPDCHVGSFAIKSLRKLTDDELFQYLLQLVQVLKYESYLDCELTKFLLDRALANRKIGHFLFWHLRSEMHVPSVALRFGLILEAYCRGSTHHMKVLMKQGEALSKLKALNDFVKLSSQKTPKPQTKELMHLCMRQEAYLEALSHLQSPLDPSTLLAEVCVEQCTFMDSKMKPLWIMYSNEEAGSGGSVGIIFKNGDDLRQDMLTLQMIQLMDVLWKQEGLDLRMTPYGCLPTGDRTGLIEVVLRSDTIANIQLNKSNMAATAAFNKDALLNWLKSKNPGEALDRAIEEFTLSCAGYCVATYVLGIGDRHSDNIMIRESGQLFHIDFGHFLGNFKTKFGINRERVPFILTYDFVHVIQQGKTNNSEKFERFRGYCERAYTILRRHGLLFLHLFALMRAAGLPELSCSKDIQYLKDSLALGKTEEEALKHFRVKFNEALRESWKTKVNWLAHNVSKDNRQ

[5] = biological target: Phosphatidylinositol 4,5-bisphosphate 3-kinase catalytic subunit gamma isoform (Homo sapiens, UniProt P48736)
Sequence of Phosphatidylinositol 4,5-bisphosphate 3-kinase catalytic subunit gamma isoform (P48736 whole entry, canonical isoform): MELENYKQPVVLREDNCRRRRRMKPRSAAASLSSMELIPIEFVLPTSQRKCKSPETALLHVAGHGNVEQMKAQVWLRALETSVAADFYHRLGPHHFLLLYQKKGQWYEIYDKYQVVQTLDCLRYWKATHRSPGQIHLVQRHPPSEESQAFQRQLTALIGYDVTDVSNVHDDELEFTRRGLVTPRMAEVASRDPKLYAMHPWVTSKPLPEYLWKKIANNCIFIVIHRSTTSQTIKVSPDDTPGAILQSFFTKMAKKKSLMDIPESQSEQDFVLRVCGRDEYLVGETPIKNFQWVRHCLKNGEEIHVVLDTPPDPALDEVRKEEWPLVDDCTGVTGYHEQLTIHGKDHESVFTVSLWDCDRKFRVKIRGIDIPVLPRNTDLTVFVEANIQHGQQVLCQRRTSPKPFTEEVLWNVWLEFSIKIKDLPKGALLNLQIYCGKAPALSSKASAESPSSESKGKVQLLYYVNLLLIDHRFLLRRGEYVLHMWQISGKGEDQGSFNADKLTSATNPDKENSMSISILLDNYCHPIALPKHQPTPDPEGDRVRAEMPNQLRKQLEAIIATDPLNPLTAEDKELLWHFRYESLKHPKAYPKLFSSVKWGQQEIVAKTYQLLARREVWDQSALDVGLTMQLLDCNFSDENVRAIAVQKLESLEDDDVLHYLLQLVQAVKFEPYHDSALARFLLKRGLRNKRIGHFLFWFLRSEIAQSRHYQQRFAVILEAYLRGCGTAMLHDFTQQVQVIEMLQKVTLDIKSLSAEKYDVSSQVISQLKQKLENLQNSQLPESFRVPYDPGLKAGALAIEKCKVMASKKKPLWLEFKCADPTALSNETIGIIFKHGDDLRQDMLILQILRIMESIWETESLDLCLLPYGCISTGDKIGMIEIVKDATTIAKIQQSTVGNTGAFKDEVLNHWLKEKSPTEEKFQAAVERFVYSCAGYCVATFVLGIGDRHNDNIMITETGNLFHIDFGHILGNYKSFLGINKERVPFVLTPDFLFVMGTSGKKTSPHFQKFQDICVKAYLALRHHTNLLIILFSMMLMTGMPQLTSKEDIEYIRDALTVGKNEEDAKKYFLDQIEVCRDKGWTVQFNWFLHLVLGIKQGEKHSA

[6] = biological target: Phosphatidylinositol 4,5-bisphosphate 3-kinase catalytic subunit beta isoform (Homo sapiens, UniProt P42338); experiment: Inhibition of recombinant PI3Kbeta assessed as PIP3 product formation by fluorescence polarization assay
Sequence of Phosphatidylinositol 4,5-bisphosphate 3-kinase catalytic subunit beta isoform (P42338 whole entry, canonical isoform): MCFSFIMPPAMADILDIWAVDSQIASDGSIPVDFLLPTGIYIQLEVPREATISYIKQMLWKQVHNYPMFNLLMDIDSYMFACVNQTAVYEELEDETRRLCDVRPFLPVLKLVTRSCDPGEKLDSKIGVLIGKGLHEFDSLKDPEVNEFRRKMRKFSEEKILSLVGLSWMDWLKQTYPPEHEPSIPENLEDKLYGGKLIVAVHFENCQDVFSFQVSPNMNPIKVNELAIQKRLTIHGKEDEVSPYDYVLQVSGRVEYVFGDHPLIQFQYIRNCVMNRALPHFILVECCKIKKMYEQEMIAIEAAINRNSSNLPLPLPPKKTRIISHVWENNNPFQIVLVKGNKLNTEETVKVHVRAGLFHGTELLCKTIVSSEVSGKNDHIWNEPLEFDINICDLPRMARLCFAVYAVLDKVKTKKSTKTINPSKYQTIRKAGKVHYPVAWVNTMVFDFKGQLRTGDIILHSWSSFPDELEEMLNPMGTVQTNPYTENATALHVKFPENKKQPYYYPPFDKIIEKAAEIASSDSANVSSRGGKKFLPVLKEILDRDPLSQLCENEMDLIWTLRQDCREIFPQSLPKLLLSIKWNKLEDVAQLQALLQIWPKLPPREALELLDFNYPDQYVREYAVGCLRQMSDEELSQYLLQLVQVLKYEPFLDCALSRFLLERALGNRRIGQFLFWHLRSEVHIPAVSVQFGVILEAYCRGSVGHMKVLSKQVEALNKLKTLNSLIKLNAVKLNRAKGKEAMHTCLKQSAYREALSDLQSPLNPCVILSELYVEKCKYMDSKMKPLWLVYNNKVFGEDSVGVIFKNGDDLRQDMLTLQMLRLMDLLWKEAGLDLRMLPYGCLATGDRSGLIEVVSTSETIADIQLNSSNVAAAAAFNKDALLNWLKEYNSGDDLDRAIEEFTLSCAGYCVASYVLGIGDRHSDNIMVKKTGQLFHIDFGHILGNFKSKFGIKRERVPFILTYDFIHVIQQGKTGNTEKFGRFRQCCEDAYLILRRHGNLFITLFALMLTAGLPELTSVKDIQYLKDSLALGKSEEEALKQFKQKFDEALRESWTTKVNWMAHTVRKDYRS

[7] = Clearance in Sprague-Dawley rat at 1 mg/kg, iv; format: ADME, organism-based; parameters: dose 1 mg/kg, route intravenous; details: in vivo
[8] = Oral bioavailability in Sprague-Dawley rat at 5 mg/kg, po; format: ADME, organism-based; details: in vivo
[9] = Volume of distribution at steady state in Sprague-Dawley rat at 1 mg/kg, iv; format: ADME, organism-based; parameters: dose 1 mg/kg, route intravenous; details: in vivo, read-out: Vdss
[10] = biological target: Serine/threonine-protein kinase mTOR (Homo sapiens, UniProt P42345)
[11] = Clearance in Beagle dog at 1 mg/kg, iv; format: ADME, organism-based, Canis lupus familiaris; parameters: dose 1 mg/kg, route intravenous; details: in vivo
[12] = Oral bioavailability in Sprague-Dawley rat at 2 mg/kg; format: ADME, organism-based; details: in vivo

Row | SMILES | IC50 (PC-3) [nM] | CLint scaled [1] [mL/min/kg] | IC50 [2] [nM] | IC50 [4] [nM] | IC50 [5] [nM] | IC50 [6] [nM] | clearance [7] [mL/min/kg] | bioavailability [8] [%] | Vd [9] [L/kg] | IC50 [10] [nM] | clearance [11] [mL/min/kg] | bioavailability [12] [%] | IC50 [3] [nM]
1 | OCc1cc2nc(-c3cccc4[nH]ncc34)nc(N3CCOCC3)c2s1 | 1200 | 170 | 29 | – | – | – | – | – | – | – | – | – | –
2 | CS(=O)(=O)N1CCN(Cc2cc3nc(-c4ccc(N)cc4)nc(N4CCOCC4)c3s2)CC1 | 1200 | – | 240 | 100 | 1300 | 1400 | – | – | – | – | – | – | 2700
3 | CC(=O)NCc1cc2nc(-c3cccc4[nH]ncc34)nc(N3CCOCC3)c2s1 | 1500 | 40 | 16 | – | – | – | 86 | – | – | – | – | 34 | –
4 | CS(=O)(=O)N1CCN(Cc2cc3nc(-c4cccnc4)nc(N4CCOCC4)c3s2)CC1 | 1800 | – | 21 | 12 | 19 | 14 | – | – | – | – | – | – | 1400
5 | CS(=O)(=O)N1CCN(Cc2cc3nc(-c4ccccc4)nc(N4CCOCC4)c3s2)CC1 | 3700 | – | 430 | – | – | – | – | – | – | – | – | – | 3700
6 | CC(C)(O)c1cc2nc(-c3cccc4[nH]ncc34)nc(N3CCOCC3)c2s1 | 1400 | 40 | 22 | – | – | – | 16 | – | – | 130 | – | 29 | 1400
7 | CS(=O)(=O)N1CCN(Cc2cc3nc(-c4ccncc4)nc(N4CCOCC4)c3s2)CC1 | – | – | 2900 | 310 | 5100 | 5400 | – | – | – | – | – | – | –

Further lines, with some results ahead:

Row | IC50 (PC-3) [nM] | CLint scaled [1] [mL/min/kg] | IC50 [2] [nM] | IC50 [4] [nM] | IC50 [5] [nM] | IC50 [6] [nM] | clearance [7] [mL/min/kg] | bioavailability [8] [%] | Vd [9] [L/kg] | IC50 [10] [nM] | clearance [11] [mL/min/kg] | bioavailability [12] [%] | SMILES | IC50 [3] [nM]
8 | 300 | – | – | 2.4 | 8.4 | 38 | 24 | 75 | 5.6 | 29 | 22 | – | CS(=O)(=O)N1CCN(Cc2cc3nc(-c4cnc(N)nc4)nc(N4CCOCC4)c3s2)CC1 | –
9 | 390 | – | – | – | – | – | – | – | – | – | – | – | CS(=O)(=O)N1CCN(Cc2cc3nc(-c4cccc5[nH]ncc45)nc(N4CCOCC4)c3s2)CC1 [PICTILISIB] | 340
10 | 270 | – | 5.5 | 6.6 | – | 60 | – | – | – | – | 16 | – | CS(=O)(=O)N1CCN(Cc2cc3nc(-c4ccc(N)nc4)nc(N4CCOCC4)c3s2)CC1 | 200
11 | 75 | – | 1.8 | 1.4 | – | – | – | – | – | – | – | – | CS(=O)(=O)N1CCN(Cc2cc3nc(-c4cccc(CO)c4)nc(N4CCOCC4)c3s2)CC1 | 320
12 | 21 | – | 1.6 | 0.9 | 20 | 11 | – | – | – | – | – | – | CS(=O)(=O)N1CCN(Cc2cc3nc(-c4cccc(O)c4)nc(N4CCOCC4)c3s2)CC1 | 36
13 | 1100 | 95 | 28 | – | – | – | 101 | – | – | – | – | 17 | CC(O)c1cc2nc(-c3cccc4[nH]ncc34)nc(N3CCOCC3)c2s1 (configuration not stated) | –
14 | 230 | – | 1.1 | 0.7 | – | 6.2 | – | – | – | 880 | – | – | Cc1nc(N)ncc1-c1nc(N2CCOCC2)c2sc(CN3CCN(S(C)(=O)=O)CC3)cc2n1 | 290
